Source: US20250367154A1, “FORMULATIONS FOR PROMOTING HYDRATION AND METHODS OF USE THEREOF” (UNIVERSITY OF FLORIDA RESEARCH FOUNDATION, INCORPORATED, priority 2020, published 2025)
“Also recorded” adds a separate entry of the source.

Tested on: Small intestinal mucosal tissues (ileum and jejunum)
Assay: Ussing chamber sodium flux (net Na absorption, 22Na)
Parameters: species or system Swiss mice
Details: single free amino acid in solution, FIG. 4
Protocol: Sodium (Na) Absorption Studies: measure net fluid and electrolyte absorption, wherein absorptive processes occur predominantly in the tip of the villi and secretory processes occur in the crypt. Na absorption studies were performed on certain of the amino acids present in 6AA-Hyd. […] Small intestinal mucosal tissues (ileum and jejunum) from 8-week old male Swiss mice were mounted in Ussing chambers containing isotonic Ringer solution, that was bubbled with 95% O2 and 5% CO2 and maintained at 37° C. throughout the experiment. After the tissues were allowed to stabilize, the conductance (G; expressed as mS/cm2) was recorded, and intestinal tissues were paired based on similar conductance. Sodium radioisotope (22Na) was added to either the basolateral or apical side of each tissue pair (Hot). Ringer samples were taken every 15 minutes from the contralateral sides (Cold). Sample 22Na activity was analyzed using a gamma counter, and unidirectional net sodium flux (Jnet; μeq·cm2·h−1) was calculated. [formula] [CPM=count per minute, CPM1=previous sample, CPM2=following sample; Blank=no 22Na added; 9/10=dilution factor for each sample (0.5 mL to 5 mL); 5=chamber volume (5 mL); 4=time factor (15 min to 60 min); 140=sodium concentration; Hot CPM=“Hot” sample activity; Cold CPM=“Cold” sample activity; 10=volume factor for Hot sample (0.1 mL to 1 mL); 0.3=intestinal surface area (cm2)]

Compound | net sodium (Na) absorption relative to control solution
N[C@@H](CC(=O)O)C(=O)O [aspartic acid] | increase net Na absorption relative to a control; also recorded: significantly higher than that of control solution
N[C@@H](CO)C(=O)O [serine] | increase net Na absorption relative to a control; also recorded: significantly higher than that of control solution
CC(C)[C@H](N)C(=O)O [valine] | increase net Na absorption relative to a control; also recorded: significantly higher than that of control solution
